Experimental data taken from the CheMixHub viscosity set.

Experiment: xn = mol fraction of the nth substance listed

C[Si]1(C)O[Si](C)(C)O[Si](C)(C)O[Si](C)(C)O1 + CCCCCCCCCC
viscosity [mPa·s], 103 kPa
Conditions | 298.15 K | 308.15 K | 318.15 K
x1 = 0.05 | 0.844 | 0.733 | 0.645
x1 = 0.1 | 0.867 | 0.753 | 0.664
x1 = 0.1501 | 0.899 | 0.778 | 0.683
x1 = 0.2 | 0.931 | 0.801 | 0.703
x1 = 0.25 | 0.965 | 0.831 | 0.725
x1 = 0.3 | 1.007 | 0.865 | 0.753
x1 = 0.35 | 1.047 | 0.895 | 0.778
x1 = 0.3999 | 1.086 | 0.93 | 0.802
x1 = 0.45 | 1.134 | 0.964 | 0.833
x1 = 0.5 | 1.183 | 1.006 | 0.867
x1 = 0.5501 | 1.232 | 1.048 | 0.909
x1 = 0.6 | 1.292 | 1.097 | 0.943
x1 = 0.65 | 1.358 | 1.15 | 0.987
x1 = 0.6999 | 1.431 | 1.209 | 1.035
x1 = 0.75 | 1.511 | 1.273 | 1.087
x1 = 0.8 | 1.6 | 1.345 | 1.145
x1 = 0.85 | 1.699 | 1.423 | 1.208
x1 = 0.9 | 1.811 | 1.511 | 1.278
x1 = 0.95 | 1.936 | 1.61 | 1.356

ClCCl + COC(=O)OC
viscosity [mPa·s], 101.33 kPa
Conditions | x2 = 0.0957 | x2 = 0.2018 | x2 = 0.3029 | x2 = 0.3958 | x2 = 0.5009 | x2 = 0.5996 | x2 = 0.6992 | x2 = 0.7599 | x2 = 0.9005
298.15 K | 0.4 | 0.423 | 0.441 | 0.458 | 0.472 | 0.485 | 0.495 | 0.5 | 0.52
303.15 K | 0.384 | 0.4 | 0.419 | 0.431 | 0.447 | 0.461 | 0.47 | 0.478 | 0.49
308.15 K | 0.374 | 0.385 | 0.399 | 0.409 | 0.42 | 0.43 | 0.44 | 0.448 | 0.461

C[Si]1(C)O[Si](C)(C)O[Si](C)(C)O[Si](C)(C)O1 + c1ccccc1
101 kPa
Conditions | viscosity [mPa·s]
298.15 K, x1 = 0.0341 | 0.6224
298.15 K, x1 = 0.0699 | 0.6486
298.15 K, x1 = 0.1407 | 0.7099
298.15 K, x1 = 0.2235 | 0.7944
298.15 K, x1 = 0.2938 | 0.875
298.15 K, x1 = 0.3751 | 0.9814
298.15 K, x1 = 0.4689 | 1.113
298.15 K, x1 = 0.6211 | 1.363
298.15 K, x1 = 0.6777 | 1.466
298.15 K, x1 = 0.751 | 1.608
298.15 K, x1 = 0.8434 | 1.804
298.15 K, x1 = 0.8753 | 1.88
298.15 K, x1 = 0.9028 | 1.939
298.15 K, x1 = 0.9291 | 2.01
308.15 K, x1 = 0.0886 | 0.5768
308.15 K, x1 = 0.3517 | 0.818
308.15 K, x1 = 0.602 | 1.127
308.15 K, x1 = 0.7741 | 1.39
308.15 K, x1 = 0.8544 | 1.527
308.15 K, x1 = 0.9373 | 1.682
318.15 K, x1 = 0.0888 | 0.507
318.15 K, x1 = 0.3526 | 0.714
318.15 K, x1 = 0.6036 | 0.971
318.15 K, x1 = 0.7763 | 1.186
318.15 K, x1 = 0.8562 | 1.298
318.15 K, x1 = 0.9134 | 1.393

ClCCl + ClCCCl
303.15 K, 101.3 kPa
Conditions | viscosity [mPa·s]
x2 = 0.0618 | 0.408
x2 = 0.1258 | 0.4242
x2 = 0.2132 | 0.4486
x2 = 0.3029 | 0.474
x2 = 0.419 | 0.5092
x2 = 0.5226 | 0.5436
x2 = 0.6033 | 0.5714
x2 = 0.7998 | 0.6445
x2 = 0.8933 | 0.6822
x2 = 0.9517 | 0.7068

ClCCl + CCO
303.15 K, 101.3 kPa
Conditions | viscosity [mPa·s]
x2 = 0.0625 | 0.395
x2 = 0.1074 | 0.398
x2 = 0.1915 | 0.4103
x2 = 0.2935 | 0.4387
x2 = 0.4162 | 0.4914
x2 = 0.5331 | 0.5595
x2 = 0.6811 | 0.6721
x2 = 0.7823 | 0.767
x2 = 0.8482 | 0.8337
x2 = 0.9067 | 0.8949
x2 = 0.9571 | 0.9476

ClCCl + CC(C)=O
viscosity [mPa·s], 101 kPa
Conditions | x2 = 0.0866 | x2 = 0.186 | x2 = 0.3088 | x2 = 0.3898 | x2 = 0.4934 | x2 = 0.5941 | x2 = 0.6959 | x2 = 0.8096 | x2 = 0.899
293.15 K | 0.439 | 0.436 | 0.423 | 0.412 | 0.4 | 0.388 | 0.374 | 0.358 | 0.339
298.15 K | 0.422 | 0.417 | 0.405 | 0.396 | 0.383 | 0.37 | 0.357 | 0.343 | 0.327

CCNc1ccccc1 + CCCCCCCCCCO
viscosity [mPa·s], 101 kPa
Conditions | 303.15 K | 308.15 K | 313.15 K
x1 = 0.0817 | 7.725 | 7.287 | 6.857
x1 = 0.1745 | 6.632 | 6.215 | 5.818
x1 = 0.2651 | 5.714 | 5.323 | 4.959
x1 = 0.3524 | 4.951 | 4.585 | 4.253
x1 = 0.4321 | 4.345 | 4.002 | 3.697
x1 = 0.5012 | 3.88 | 3.557 | 3.274
x1 = 0.5685 | 3.476 | 3.173 | 2.909
x1 = 0.6325 | 3.131 | 2.845 | 2.6
x1 = 0.6958 | 2.825 | 2.556 | 2.327
x1 = 0.7521 | 2.579 | 2.324 | 2.109
x1 = 0.8012 | 2.382 | 2.14 | 1.937
x1 = 0.8562 | 2.18 | 1.952 | 1.762
x1 = 0.9021 | 2.027 | 1.81 | 1.63

CC(=O)O + c1ccncc1
Conditions | viscosity [mPa·s]
293.15 K, 101 kPa, x2 = 0.104 | 4.421
293.15 K, 101 kPa, x2 = 0.2205 | 5.037
293.15 K, 101 kPa, x2 = 0.383 | 3.024
293.15 K, 101 kPa, x2 = 0.401 | 2.885
293.15 K, 101 kPa, x2 = 0.481 | 2.188
293.15 K, 101 kPa, x2 = 0.579 | 1.762
293.15 K, 101 kPa, x2 = 0.738 | 1.289
303.15 K, 101 kPa, x1 = 0.135 | 0.9842
303.15 K, 101 kPa, x1 = 0.2599 | 1.139
303.15 K, 101 kPa, x1 = 0.3756 | 1.346
303.15 K, 101 kPa, x1 = 0.4837 | 1.648
303.15 K, 101 kPa, x1 = 0.5841 | 2.075
303.15 K, 101 kPa, x1 = 0.6781 | 2.704
303.15 K, 101 kPa, x1 = 0.766 | 3.398
303.15 K, 101 kPa, x1 = 0.8509 | 3.624
303.15 K, 101 kPa, x1 = 0.9266 | 2.558
308.15 K, 101.33 kPa, x2 = 0.15 | 3.2
308.15 K, 101.33 kPa, x2 = 0.2 | 3.17
308.15 K, 101.33 kPa, x2 = 0.25 | 2.887
308.15 K, 101.33 kPa, x2 = 0.3 | 2.55
308.15 K, 101.33 kPa, x2 = 0.4 | 1.928
308.15 K, 101.33 kPa, x2 = 0.6 | 1.27
308.15 K, 101.33 kPa, x2 = 0.8 | 1.052
313.15 K, 101.33 kPa, x1 = 0.5 | 1.68
313.15 K, 101.33 kPa, x1 = 0.8 | 2.91
313.15 K, 101.33 kPa, x1 = 0.825 | 2.93
313.15 K, 101.33 kPa, x1 = 0.85 | 2.85
318.15 K, 101.33 kPa, x2 = 0.15 | 2.35
318.15 K, 101.33 kPa, x2 = 0.2 | 2.38
318.15 K, 101.33 kPa, x2 = 0.25 | 2.2
318.15 K, 101.33 kPa, x2 = 0.3 | 1.985
318.15 K, 101.33 kPa, x2 = 0.4 | 1.52
318.15 K, 101.33 kPa, x2 = 0.6 | 1.07
318.15 K, 101.33 kPa, x2 = 0.8 | 0.896

CC(=O)O + ClC(Cl)Cl
Conditions | viscosity [mPa·s]
298.15 K, 101.33 kPa, x2 = 0.0468 | 1.087
298.15 K, 101.33 kPa, x2 = 0.1013 | 0.997
298.15 K, 101.33 kPa, x2 = 0.1021 | 1.022
298.15 K, 101.33 kPa, x2 = 0.1487 | 0.954
298.15 K, 101.33 kPa, x2 = 0.203 | 0.925
298.15 K, 101.33 kPa, x2 = 0.2312 | 0.882
298.15 K, 101.33 kPa, x2 = 0.2997 | 0.837
298.15 K, 101.33 kPa, x2 = 0.3403 | 0.805
298.15 K, 101.33 kPa, x2 = 0.4207 | 0.759
298.15 K, 101.33 kPa, x2 = 0.4784 | 0.731
298.15 K, 101.33 kPa, x2 = 0.5017 | 0.717
298.15 K, 101.33 kPa, x2 = 0.5627 | 0.68
298.15 K, 101.33 kPa, x2 = 0.6215 | 0.657
298.15 K, 101.33 kPa, x2 = 0.7312 | 0.613
298.15 K, 101.33 kPa, x2 = 0.8031 | 0.589
298.15 K, 101.33 kPa, x2 = 0.8931 | 0.56
303.15 K, 101 kPa, x2 = 0.0819 | 0.8986
303.15 K, 101 kPa, x2 = 0.25 | 0.7244
303.15 K, 101 kPa, x2 = 0.7464 | 0.5285
313.15 K, 101 kPa, x2 = 0.0819 | 0.8287
313.15 K, 101 kPa, x2 = 0.25 | 0.6532
313.15 K, 101 kPa, x2 = 0.7464 | 0.484
323.15 K, 101 kPa, x2 = 0.0819 | 0.7516
323.15 K, 101 kPa, x2 = 0.25 | 0.5982
323.15 K, 101 kPa, x2 = 0.7464 | 0.4537

ClCCCl + CCCCCCO
303.15 K, 101 kPa
Conditions | viscosity [mPa·s]
x1 = 0.1515 | 2.572
x1 = 0.302 | 1.864
x1 = 0.5095 | 1.235
x1 = 0.6031 | 1.047
x1 = 0.7397 | 0.9
x1 = 0.9017 | 0.73
